Columns and labels:
AlpJ = molecular target: T1, AlpJ (Streptomyces ambofaciens, UniProt Q6VMI5); assay: HPLC of products […] and […] from one-pot reaction with AlpK; type: biochemical; conditions: NADH, FAD, pH 7.5, 30 °C
T1 construct: pET28a, Ni-NTA purified from E. coli BL21(DE3); gene amplified from kinamycin BAC 3C2
T1 sequence (Q6VMI5 1-232): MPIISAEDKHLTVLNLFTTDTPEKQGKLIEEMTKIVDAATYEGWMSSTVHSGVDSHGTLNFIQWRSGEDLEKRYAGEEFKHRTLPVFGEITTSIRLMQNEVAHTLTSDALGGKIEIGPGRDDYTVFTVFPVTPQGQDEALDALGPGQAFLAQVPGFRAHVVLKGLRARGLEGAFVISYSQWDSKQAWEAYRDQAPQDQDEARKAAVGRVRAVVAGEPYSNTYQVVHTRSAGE

AlpH = molecular target: T2, AlpH (Streptomyces ambofaciens, UniProt Q6VMJ4); assay: surface plasmon resonance (Biacore 8K, AlpH immobilized on CM5); type: binding
T2 construct: N-terminal His6-tagged, pET28a, E. coli BL21(DE3); homodimer in the apo crystal; gene amplified from kinamycin BAC 3C2
From the text: surface plasmon resonance (Biacore 8K, AlpH immobilized on CM5) on AlpH | Surface plasmon resonance analysis of AlpH and gluN2H3 also identified a specific interaction between them

[1] = molecular target: AlpH, O-methyltransferase-like protein from the kinamycin biosynthetic gene cluster; assay: crystal structure; apo-AlpH, hanging drop vapor diffusion at 16 °C; protein in 20 mM Tris-HCl pH 7.5, 100 mM NaCl, 1 mM DTT, 1 mM EDTA; reservoir 0.03 M citric acid, 0.07 M Bis-Tris propane pH 7.6, 20% PEG3350; molecular replacement, 1.87 Å

T2 sequence (Q6VMJ4 entry or part of it): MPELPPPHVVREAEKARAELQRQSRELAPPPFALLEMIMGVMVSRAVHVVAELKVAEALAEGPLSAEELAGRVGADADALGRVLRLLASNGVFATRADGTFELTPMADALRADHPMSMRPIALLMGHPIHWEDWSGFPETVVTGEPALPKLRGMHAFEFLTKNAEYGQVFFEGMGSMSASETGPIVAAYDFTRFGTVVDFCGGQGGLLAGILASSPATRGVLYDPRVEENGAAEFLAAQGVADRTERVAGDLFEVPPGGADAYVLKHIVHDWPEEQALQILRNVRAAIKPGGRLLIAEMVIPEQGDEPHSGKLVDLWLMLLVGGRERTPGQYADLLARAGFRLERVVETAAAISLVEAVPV

Cc1cc(O)c2c3c(c(O)cc2c1)C(=O)c1c(O)cccc1C3=O [DHR]
HPLC of products 1 and 6 from one-pot reaction with AlpK (AlpJ): prepared in situ by incubating AlpJ and AlpK with DHR and NADH

NNC(=O)CC[C@H](N)C(=O)O [gluN2H3]
Kd (AlpH): 114 nM

AlpH, O-methyltransferase-like protein from the kinamycin biosynthetic gene cluster (enzyme)
stoichiometry N [1]: 2

— publication PMC10477347, “O-methyltransferase-like enzyme catalyzed diazo installation in polyketide biosynthesis” (Nature Communications, 2023)
